In brackets after ≈: the same amount, converted by molar mass. Each block holds one compound with its values, some of them ahead of it.
Tests used:
[1] = system: Pseudomonas aeruginosa; test: Antibacterial activity against Pseudomonas aeruginosa ATCC 27853 assessed as inhibition of biofilm formation after 20 hrs by crystal-violet staining method; format: functional, organism-based; conditions: for IC50: ATCC 27853, 20 h
[2] = system: Staphylococcus epidermidis; test: Antibacterial activity against Staphylococcus epidermidis ATCC 35547 assessed as effect on planktonic growth at 1.37 ug/ml after 20 hrs relative to control; format: functional
[3] = system: Staphylococcus epidermidis; test: Antibacterial activity against Staphylococcus epidermidis ATCC 35547 assessed as inhibition of biofilm formation after 20 hrs by crystal-violet staining method; format: functional, organism-based; conditions: for IC50: ATCC 35547, 20 h
[4] = system: Pseudomonas aeruginosa; test: Antibacterial activity against Pseudomonas aeruginosa ATCC 27853 assessed as effect on planktonic growth at 43.8 ug/ml after 20 hrs relative to control; format: functional
[5] = system: Staphylococcus epidermidis; test: Antibacterial activity against Staphylococcus epidermidis ATCC 35547 assessed as effect on planktonic growth at 21.9 ug/ml after 20 hrs relative to control; format: functional
[6] = system: Streptococcus mutans; test: Antibacterial activity against Streptococcus mutans ATCC 25175 assessed as effect on planktonic growth at 2.73 ug/ml after 20 hrs relative to control; format: functional
[7] = system: Staphylococcus epidermidis; test: Antibacterial activity against Staphylococcus epidermidis ATCC 35547 assessed as effect on planktonic growth at 0.68 ug/ml after 20 hrs relative to control; format: functional
[8] = system: Pseudomonas aeruginosa; test: Antibacterial activity against Pseudomonas aeruginosa ATCC 27853 assessed as effect on planktonic growth at 0.34 ug/ml after 20 hrs relative to control; format: functional
[9] = system: Pseudomonas aeruginosa; test: Antibacterial activity against Pseudomonas aeruginosa ATCC 27853 assessed as effect on planktonic growth at 0.17 ug/ml after 20 hrs relative to control; format: functional
[10] = system: Streptococcus mutans; test: Antibacterial activity against Streptococcus mutans ATCC 25175 assessed as effect on planktonic growth at 43.8 ug/ml after 20 hrs relative to control; format: functional
[11] = system: Pseudomonas aeruginosa; test: Antibacterial activity against Pseudomonas aeruginosa ATCC 27853 assessed as effect on planktonic growth at 0.68 ug/ml after 20 hrs relative to control; format: functional
[12] = system: Pseudomonas aeruginosa; test: Antibacterial activity against Pseudomonas aeruginosa ATCC 27853 assessed as effect on planktonic growth at 87.5 ug/ml after 20 hrs relative to control; format: functional
[13] = system: Staphylococcus aureus; test: Antibacterial activity against Staphylococcus aureus ATCC 25923 assessed as effect on planktonic growth at 10.9 ug/ml after 20 hrs relative to control; format: functional
[14] = system: Streptococcus mutans; test: Antibacterial activity against Streptococcus mutans ATCC 25175 assessed as effect on planktonic growth at 0.34 ug/ml after 20 hrs relative to control; format: functional
[15] = system: Streptococcus mutans; test: Antibacterial activity against Streptococcus mutans ATCC 25175 assessed as effect on planktonic growth at 1.37 ug/ml after 20 hrs relative to control; format: functional
[16] = system: Staphylococcus epidermidis; test: Antibacterial activity against Staphylococcus epidermidis ATCC 35547 assessed as effect on planktonic growth at 0.34 ug/ml after 20 hrs relative to control; format: functional
[17] = system: Staphylococcus aureus; test: Antibacterial activity against Staphylococcus aureus ATCC 25923 assessed as effect on planktonic growth at 1.37 ug/ml after 20 hrs relative to control; format: functional
[18] = system: Streptococcus mutans; test: Antibacterial activity against Streptococcus mutans ATCC 25175 assessed as effect on planktonic growth at 21.9 ug/ml after 20 hrs relative to control; format: functional
[19] = system: Staphylococcus epidermidis; test: Antibacterial activity against Staphylococcus epidermidis ATCC 35547 assessed as effect on planktonic growth at 2.73 ug/ml after 20 hrs relative to control; format: functional
[20] = system: Staphylococcus epidermidis; test: Antibacterial activity against Staphylococcus epidermidis ATCC 35547 assessed as effect on planktonic growth at 43.8 ug/ml after 20 hrs relative to control; format: functional
[21] = system: Pseudomonas aeruginosa; test: Antibacterial activity against Pseudomonas aeruginosa ATCC 27853 assessed as effect on planktonic growth at 21.9 ug/ml after 20 hrs relative to control; format: functional
[22] = system: Staphylococcus aureus; test: Antibacterial activity against Staphylococcus aureus ATCC 25923 assessed as effect on planktonic growth at 0.34 ug/ml after 20 hrs relative to control; format: functional
[23] = system: Staphylococcus aureus; test: Antibacterial activity against Staphylococcus aureus ATCC 25923 assessed as effect on planktonic growth at 43.8 ug/ml after 20 hrs relative to control; format: functional
[24] = system: Pseudomonas aeruginosa; test: Antibacterial activity against Pseudomonas aeruginosa ATCC 27853 assessed as effect on planktonic growth at 10.9 ug/ml after 20 hrs relative to control; format: functional
[25] = system: Pseudomonas aeruginosa; test: Antibacterial activity against Pseudomonas aeruginosa ATCC 27853 assessed as effect on planktonic growth at 5.5 ug/ml after 20 hrs relative to control; format: functional
[26] = system: Streptococcus mutans; test: Antibacterial activity against Streptococcus mutans ATCC 25175 assessed as effect on planktonic growth at 87.5 ug/ml after 20 hrs relative to control; format: functional
[27] = system: Staphylococcus aureus; test: Antibacterial activity against Staphylococcus aureus ATCC 25923 assessed as effect on planktonic growth at 0.17 ug/ml after 20 hrs relative to control; format: functional
[28] = system: Streptococcus mutans; test: Antibacterial activity against Streptococcus mutans ATCC 25175 assessed as effect on planktonic growth at 10.9 ug/ml after 20 hrs relative to control; format: functional
[29] = system: Staphylococcus epidermidis; test: Antibacterial activity against Staphylococcus epidermidis ATCC 35547 assessed as effect on planktonic growth at 10.9 ug/ml after 20 hrs relative to control; format: functional
[30] = system: Pseudomonas aeruginosa; test: Antibacterial activity against Pseudomonas aeruginosa ATCC 27853 assessed as effect on planktonic growth at 1.37 ug/ml after 20 hrs relative to control; format: functional
[31] = system: Staphylococcus aureus; test: Antibacterial activity against Staphylococcus aureus ATCC 25923 assessed as effect on planktonic growth at 2.73 ug/ml after 20 hrs relative to control; format: functional
[32] = system: Staphylococcus epidermidis; test: Antibacterial activity against Staphylococcus epidermidis ATCC 35547 assessed as effect on planktonic growth at 87.5 ug/ml after 20 hrs relative to control; format: functional
[33] = system: Staphylococcus aureus; test: Antibacterial activity against Staphylococcus aureus ATCC 25923 assessed as effect on planktonic growth at 21.9 ug/ml after 20 hrs relative to control; format: functional
[34] = system: Staphylococcus aureus; test: Antibacterial activity against Staphylococcus aureus ATCC 25923 assessed as effect on planktonic growth at 5.5 ug/ml after 20 hrs relative to control; format: functional
[35] = system: Streptococcus mutans; test: Antibacterial activity against Streptococcus mutans ATCC 25175 assessed as effect on planktonic growth at 5.5 ug/ml after 20 hrs relative to control; format: functional
[36] = system: Pseudomonas aeruginosa; test: Antibacterial activity against Pseudomonas aeruginosa ATCC 27853 assessed as effect on planktonic growth at 2.73 ug/ml after 20 hrs relative to control; format: functional
[37] = system: Staphylococcus aureus; test: Antibacterial activity against Staphylococcus aureus ATCC 25923 assessed as effect on planktonic growth at 0.68 ug/ml after 20 hrs relative to control; format: functional
[38] = system: Staphylococcus epidermidis; test: Antibacterial activity against Staphylococcus epidermidis ATCC 35547 assessed as effect on planktonic growth at 0.17 ug/ml after 20 hrs relative to control; format: functional
[39] = system: Staphylococcus epidermidis; test: Antibacterial activity against Staphylococcus epidermidis ATCC 35547 assessed as effect on planktonic growth at 5.5 ug/ml after 20 hrs relative to control; format: functional
[40] = system: Staphylococcus aureus; test: Antibacterial activity against Staphylococcus aureus ATCC 25923 assessed as effect on planktonic growth at 87.5 ug/ml after 20 hrs relative to control; format: functional
[41] = system: Streptococcus mutans; test: Antibacterial activity against Streptococcus mutans ATCC 25175 assessed as effect on planktonic growth at 0.68 ug/ml after 20 hrs relative to control; format: functional
[42] = system: Streptococcus mutans; test: Antibacterial activity against Streptococcus mutans ATCC 25175 assessed as effect on planktonic growth at 0.17 ug/ml after 20 hrs relative to control; format: functional

IC50 [1]: > 87.5 µg/mL | IC50 [3]: > 87.5 µg/mL
SMILES: COc1ccc(C)cc1C1=C(Br)C(=O)N(CC(C)C)C1(O)Cc1ccccc1Cl (stereo not drawn)
inhibition [1]: Dose-dependent effect | Activity [2]: 6.4% | inhibition [3]: Dose-dependent effect | Activity [4]: 17.1% | Activity [5]: 34.6% | Activity [6]: 30.7% | Activity [7]: 2.7% | Activity [8]: -4.5% | Activity [9]: -2.5% | Activity [10]: 27.2% | Activity [11]: -4.7% | Activity [12]: 32.5% | Activity [13]: -6.75% | Activity [14]: 11.1% | Activity [15]: 12.6% | Activity [16]: 24.8% | Activity [17]: -3% | Activity [18]: 39.8% | Activity [19]: 2.8% | Activity [20]: 48.3% | Activity [21]: -5.6% | Activity [22]: -0.5% | Activity [23]: 2.25% | Activity [24]: -17.5% | Activity [25]: -17.6% | Activity [26]: 15.3% | Activity [27]: -1.25% | Activity [28]: 28.7% | Activity [29]: 22.6% | Activity [30]: -7.4% | Activity [31]: 0.5% | Activity [32]: 60.7% | Activity [33]: -10.75% | Activity [34]: 5% | Activity [35]: 35.6% | Activity [36]: -20.3% | Activity [37]: -2.5% | Activity [38]: 6% | Activity [39]: 16.5% | Activity [40]: 16.5% | Activity [41]: 13% | Activity [42]: 7.3%

IC50 [1]: > 87.5 µg/mL | IC50 [3]: 41 µg/mL (≈ 86 µM)
SMILES: COc1cccc(/C=C2/C(c3cc(Cl)ccc3OC)=C(Br)C(=O)N2CC(C)C)c1
inhibition [1]: Dose-dependent effect | Activity [2]: -2.6% | inhibition [3]: Dose-dependent effect | Activity [4]: -8.9% | Activity [5]: 11.3% | Activity [6]: -6.5% | Activity [7]: 5.5% | Activity [8]: 2.8% | Activity [9]: 3.2% | Activity [10]: 12.3% | Activity [11]: 1% | Activity [12]: -2.1% | Activity [13]: -7.2% | Activity [14]: -18.2% | Activity [15]: -4.4% | Activity [16]: -0.7% | Activity [17]: -5.7% | Activity [18]: 6.2% | Activity [19]: -3.8% | Activity [20]: 24.6% | Activity [21]: -10% | Activity [22]: -3% | Activity [23]: -11.3% | Activity [24]: -15.5% | Activity [25]: -9.1% | Activity [26]: 30.8% | Activity [27]: -2.6% | Activity [28]: 1.2% | Activity [29]: 0.9% | Activity [30]: 0.8% | Activity [31]: -13.7% | Activity [32]: 35.5% | Activity [33]: 7.2% | Activity [34]: -3.5% | Activity [35]: 2.6% | Activity [36]: 0.2% | Activity [37]: -9.6% | Activity [38]: 5.8% | Activity [39]: -2.3% | Activity [40]: 13% | Activity [41]: -17.3% | Activity [42]: -19.6%

Source: ChEMBL document CHEMBL3112480, “γ-Alkylidene-γ-lactones and isobutylpyrrol-2(5H)-ones analogues to rubrolides as inhibitors of biofilm formation by gram-positive and gram-negative bacteria” (Bioorg Med Chem Lett, 2014)
